Data published in patent publication US20130252930A1 (BIOMARIN PHARMACEUTICAL INC., priority 2010, published 2013).
Like-named read-outs stand apart in the source and are kept apart here. Blank lines part the entries; values can stand above or below the compound they belong to.

Tests used:
[1] = target: T1, CYP17 (human testicular microsome) (Homo sapiens, UniProt P05093); test: CYP17 enzymatic assay (% inhibition at 1 nM) (Biological Example 12); format: biochemical; details: compound at 1 nM
T1 construct: using microsomal fraction from human testis (Celsis Cat #S00110) as the enzyme source; tissue Celsis S00110; host or cells: human testis microsomal fraction
T1 sequence (P05093 1-508): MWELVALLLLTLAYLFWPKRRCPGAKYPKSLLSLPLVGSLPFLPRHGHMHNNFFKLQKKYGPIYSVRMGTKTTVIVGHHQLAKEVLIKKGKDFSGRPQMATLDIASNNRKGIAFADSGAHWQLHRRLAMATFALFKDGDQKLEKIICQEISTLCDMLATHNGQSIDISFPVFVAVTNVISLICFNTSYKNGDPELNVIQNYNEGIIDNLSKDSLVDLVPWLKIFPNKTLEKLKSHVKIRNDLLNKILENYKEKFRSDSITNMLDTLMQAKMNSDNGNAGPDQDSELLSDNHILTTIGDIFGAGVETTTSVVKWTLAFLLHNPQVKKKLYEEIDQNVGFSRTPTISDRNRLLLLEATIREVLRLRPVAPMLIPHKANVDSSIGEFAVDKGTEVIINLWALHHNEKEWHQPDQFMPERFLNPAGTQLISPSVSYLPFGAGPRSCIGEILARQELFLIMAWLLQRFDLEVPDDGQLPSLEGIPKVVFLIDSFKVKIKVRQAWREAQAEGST

[2] = target: T2, Cyp21 enzyme (Human HEK 293-Cyp21 stable transfected cells) (Homo sapiens, UniProt P08686); test: CYP21-HEK293 enzymatic assay (IC50) (Biological Example 11); format: cell-based
T2 construct: expressed in transfected cells
T2 sequence (P08686 1-495): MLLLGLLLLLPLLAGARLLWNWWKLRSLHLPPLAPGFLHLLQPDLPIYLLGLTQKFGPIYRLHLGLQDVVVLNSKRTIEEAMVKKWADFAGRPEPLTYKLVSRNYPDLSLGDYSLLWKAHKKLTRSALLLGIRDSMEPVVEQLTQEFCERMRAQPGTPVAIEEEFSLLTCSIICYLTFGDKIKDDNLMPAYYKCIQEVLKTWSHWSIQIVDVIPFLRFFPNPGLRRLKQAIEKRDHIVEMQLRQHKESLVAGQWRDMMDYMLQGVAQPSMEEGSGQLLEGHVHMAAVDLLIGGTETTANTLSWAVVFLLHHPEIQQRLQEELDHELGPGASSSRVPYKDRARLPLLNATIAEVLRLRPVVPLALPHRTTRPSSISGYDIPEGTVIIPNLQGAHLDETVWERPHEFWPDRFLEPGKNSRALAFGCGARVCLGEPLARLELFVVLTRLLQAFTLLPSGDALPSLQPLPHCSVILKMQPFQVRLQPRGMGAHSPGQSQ

[3] = read-out: CYP17 enzymatic assay % inhibition at 1 nM (Biological Example No. 12)
[4] = HEK 293-Cyp21 cells, read-out: CYP21-HEK293 enzymatic assay IC50 (Biological Example No. 11)
[5] = read-out: Biological Example No. 12: CYP17 enzymatic assay % inhibition at 1 nM
[6] = HEK 293-Cyp21 cells, read-out: Biological Example No. 11: CYP21-HEK293 enzymatic assay IC50
[7] = HEK 293-Cyp21 stable transfected cells, read-out: CYP21-HEK293 enzymatic assay IC50 (Biological Example No. 11)

SMILES: Cc1cccc(C)c1C(=O)O[C@H]1CC[C@@]2(C)C(=CCC3C4=CC=C(c5cccnc5)[C@@]4(C)CCC32)C1 (stereo partly drawn) [Compound 196, (3S,10R,13S)-10,13-dimethyl-17-(pyridin-3-yl)-2,3,4,7,8,9,10,11,12,13-decahydro-1H-cyclopenta[a]phenanthren-3-yl 2,6-dimethylbenzoate]
inhibition at 0.001 µM [1, 3]: < 10%
IC50 [2, 4]: > 1000 nM

inhibition at 0.001 µM [1, 3]: 10 to 50%
IC50 [2, 4]: > 1000 nM
SMILES: C[C@]12CCC3C(CC=C4C=CCC[C@@]43C)C1=CC=C2c1cccnc1 (stereo partly drawn) [Compound 197, 3-((10R,13S)-10,13-dimethyl-2,7,8,9,10,11,12,13-octahydro-1H-cyclopenta[a]phenanthren-17-yl)pyridine]

SMILES: Cc1cccc(C)c1C(=O)O[C@@H]1CC[C@@]2(C)C(=CCC3C4=CC=C(c5cccnc5)[C@@]4(C)CCC32)C1 (stereo partly drawn) [Compound 198, (3R,10R,13S)-10,13-dimethyl-17-(pyridin-3-yl)-2,3,4,7,8,9,10,11,12,13-decahydro-1H-cyclopenta[a]phenanthren-3-yl 2,6-dimethylbenzoate]
inhibition at 0.001 µM [1, 3]: < 10%
IC50 [2, 4]: > 1000 nM

SMILES: C[C@]12CC[C@@H](NS(=O)(=O)C3CC3)CC1=CC[C@@H]1[C@@H]2CC[C@]2(C)C(c3cccnc3)=CC[C@@H]12 [Compound 228, N-((3R,10R,13S)-10,13-dimethyl-17-(pyridin-3-yl)-2,3,4,7,8,9,10,11,12,13,14,15-dodecahydro-1H-cyclopenta[a]phenanthren-3-yl)cyclopropanesulfonamide]
inhibition at 0.001 µM [1, 3]: 10 to 50%
IC50 [2, 4]: > 1000 nM

SMILES: CC1=C2CCC3C4=CC=C(c5cccnc5)[C@@]4(C)CCC3[C@@]2(C)CCC1=O (stereo partly drawn) [Compound 296, (10R,13S)-4,10,13-trimethyl-17-(pyridin-3-yl)-6,7,8,9,10,11,12,13-octahydro-1H-cyclopenta[a]phenanthren-3(2H)-one]
inhibition at 0.001 µM [1, 3]: > 50%
IC50 [2, 4]: > 100 nM

SMILES: CC1C(=O)CC[C@@]2(C)C1CC[C@@H]1[C@@H]2CC[C@]2(C)C(c3cccnc3)=CC[C@@H]12 (stereo partly drawn) [Compound 303, (10R,13S)-4,10,13-trimethyl-17-(pyridin-3-yl)-4,5,6,7,8,9,10,11,12,13,14,15-dodecahydro-1H-cyclopenta[a]phenanthren-3(2H)-one]
inhibition at 0.001 µM [1, 5]: 10 to 50%
IC50 [2, 6]: > 1000 nM

SMILES: CC1CC2C3=CC=C(c4ccc(F)nc4)[C@@]3(C)CCC2[C@@]2(C)CCC(=O)C=C12 (stereo partly drawn) [Compound 326, (10R,13S)-17-(6-fluoropyridin-3-yl)-6,10,13-trimethyl-6,7,8,9,10,11,12,13-octahydro-1H-cyclopenta[a]phenanthren-3(2H)-one]
inhibition at 0.001 µM [1, 5]: 10 to 50%
IC50 [2, 6]: > 1000 nM

SMILES: CC1CC2C3=CC=C(c4cncc(C(F)F)c4)[C@@]3(C)CCC2[C@@]2(C)CCC(=O)C=C12 (stereo partly drawn) [Compound 328, (10R,13S)-17-(5-(difluoromethyl)pyridin-3-yl)-6,10,13-trimethyl-6,7,8,9,10,11,12,13-octahydro-1H-cyclopenta[a]phenanthren-3(2H)-one]
inhibition at 0.001 µM [1, 5]: < 10%
IC50 [2, 6]: > 1000 nM

SMILES: C[C@]12CCC(=O)C=C1C(C1CC1)C[C@@H]1[C@@H]2CC[C@]2(C)C(c3cncc(F)c3)=CC[C@@H]12 (stereo partly drawn) [Compound 331, (10R,13S)-6-cyclopropyl-17-(5-fluoropyridin-3-yl)-10,13-dimethyl-6,7,8,9,10,11,12,13,14,15-decahydro-1H-cyclopenta[a]phenanthren-3(2H)-one]
inhibition at 0.001 µM [1, 5]: 10 to 50%
IC50 [2, 6]: > 1000 nM

SMILES: C=C1C[C@H]2C3=CC=C(c4cccnc4)[C@@]3(C)CC[C@@H]2[C@@]2(C)CCC(=O)C=C12 [Compound 348, (10R,13S)-10,13-dimethyl-6-methylene-17-(pyridin-3-yl)-6,7,8,9,10,11,12,13-octahydro-1H-cyclopenta[a]phenanthren-3(2H)-one]
IC50 [2, 7]: 10 to 100 nM

SMILES: C[C@]12CC[C@H]3[C@@H](CC4(CC4)C4=CC(=O)CC[C@@]43C)C1=CC=C2c1cccnc1 [Compound 351, (10R,13S)-10,13-dimethyl-17-(pyridin-3-yl)-1,7,8,9,10,11,12,13-octahydrospiro[cyclopenta[a]phenanthrene-6,1′-cyclopropan]-3(2H)-one]
IC50 [2, 7]: < 10 nM

SMILES: C=C1C[C@H]2C3=CC=C(c4cncc(F)c4)[C@@]3(C)CC[C@@H]2[C@@]2(C)CCC(=O)C=C12 [Compound 353, (10R,13S)-17-(5-fluoropyridin-3-yl)-10,13-dimethyl-6-methylene-6,7,8,9,10,11,12,13-octahydro-1H-cyclopenta[a]phenanthren-3(2H)-one]
IC50 [2, 7]: 10 to 100 nM

SMILES: C[C@]12CC[C@H]3[C@@H](CC4(CC4)C4=CC(=O)CC[C@@]43C)C1=CC=C2c1cncc(F)c1 [Compound 354, (10R,13S)-17-(5-fluoropyridin-3-yl)-10,13-dimethyl-1,7,8,9,10,11,12,13-octahydrospiro[cyclopenta[a]phenanthrene-6,1′-cyclopropan]-3(2H)-one]
IC50 [2, 7]: 10 to 100 nM

IC50 [2, 7]: > 100 nM
SMILES: CN1CC[C@@]2(C)C(=CC1=O)CCC1C3=CC=C(c4cncc(F)c4)[C@@]3(C)CCC12 (stereo partly drawn) [Compound 392, (5aR,7aS)-8-(5-fluoropyridin-3-yl)-3,5a,7a-trimethyl-3,4,5,5a,5b,6,7,7a,11,12-decahydrocyclopenta[5,6]naphtho[1,2-d]azepin-2(10bH)-one]

IC50 [2, 7]: 10 to 100 nM
SMILES: CC1CC2C3=CC=C(c4cccnc4)[C@@]3(C)CCC2[C@@]2(C)CCN(C)C(=O)C=C12 (stereo partly drawn) [Compound 393, (5aR,7aS)-3,5a,7a,12-tetramethyl-8-(pyridin-3-yl)-3,4,5,5a,5b,6,7,7a,11,12-decahydrocyclopenta[5,6]naphtho[1,2-d]azepin-2(10bH)-one]

IC50 [2, 7]: > 100 nM
SMILES: CC1CC2C3=CC=C(c4cncc(F)c4)[C@@]3(C)CCC2[C@@]2(C)CCN(C)C(=O)C=C12 (stereo partly drawn) [Compound 394, (5aR,7aS)-8-(5-fluoropyridin-3-yl)-3,5a,7a,12-tetramethyl-3,4,5,5a,5b,6,7,7a,11,12-decahydrocyclopenta[5,6]naphtho[1,2-d]azepin-2(10bH)-one]

IC50 [2, 7]: 10 to 100 nM
SMILES: CN1CC[C@@]2(C)C(=CC1=O)C1CC1[C@H]1C3=CC=C(c4cccnc4)[C@@]3(C)CC[C@@H]12 (stereo partly drawn) [Compound 396, (5aR,7aS)-3,5a,7a-trimethyl-8-(pyridin-3-yl)-3,4,5,5a,5b,6,7,7a,10b,10c,11,11a-dodecahydro-2H-cyclopenta[5,6]cyclopropa[3,4]naphtho[1,2-d]azepin-2-one]

IC50 [2, 7]: > 1000 nM
SMILES: C[C@]12CCCN(S(C)(=O)=O)CC1CCC1C2CC[C@]2(C)C(n3cncc3C#N)=CCC12 (stereo partly drawn) [Compound 431, 1-((5aR,7aS)-5a,7a-dimethyl-2-(methylsulfonyl)-1,2,3,4,5,5a,5b,6,7,7a,10,10a,10b,11,12,12a-hexadecahydrocyclopenta[5,6]naphtho[2,1-c]azepin-8-yl)-1H-imidazole-5-carbonitrile]

IC50 [2, 7]: > 1000 nM
SMILES: C[C@]12CCN(S(C)(=O)=O)CCC1CCC1C2CC[C@]2(C)C(n3cncc3C#N)=CCC12 (stereo partly drawn) [Compound 432, 1-((5aS,7aS)-5a,7a-dimethyl-3-(methylsulfonyl)-1,2,3,4,5,5a,5b,6,7,7a,10,10a,10b,11,12,12a-hexadecahydrocyclopenta[5,6]naphtho[1,2-d]azepin-8-yl)-1H-imidazole-5-carbonitrile]

IC50 [2, 7]: > 1000 nM
SMILES: C[C@]12CCN(S(C)(=O)=O)CCC1CC[C@@H]1[C@@H]2CC[C@]2(C)C(n3ccnc3)=CC[C@@H]12 (stereo partly drawn) [Compound 438, (5aS,7aS)-8-(1H-imidazol-1-yl)-5a,7a-dimethyl-3-(methylsulfonyl)-1,2,3,4,5,5a,5b,6,7,7a,10,10a,10b,11,12,12a-hexadecahydrocyclopenta[5,6]naphtho[1,2-d]azepine]

IC50 [2, 7]: > 1000 nM
SMILES: C[C@]12CCC3C(CCC4CCN(S(C)(=O)=O)CC[C@@]43C)C1=CC=C2n1ccnc1 (stereo partly drawn) [Compound 489, (5aS,7aS)-8-(1H-imidazol-1-yl)-5a,7a-dimethyl-3-(methylsulfonyl)-1,2,3,4,5,5a,5b,6,7,7a,10b,11,12,12a-tetradecahydrocyclopenta[5,6]naphtho[1,2-d]azepine]
